Measured values published in the supplement of paper PMC10307832.

Columns and labels:
Experiment in all cases: relative viability (nuclei count vs DMSO), 5 days (fraction); higher = more cells survive
[1] = compound: C1CNCCC1C2=CC(=NN2)C3=CC=NC=C3 + Nc1nc2[nH]cc(CCc3ccc(C(=O)N[C@@H](CCC(=O)O)C(=O)O)cc3)c2c(=O)[nH]1 [Pemetrexed] (partner 0.2 µM)
Method in brief: (§1)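 Five library-drug doses in √10 steps were combined with a fixed anchor-drug dose, or a single drug was given alone, by pin tool to lung cancer cell lines in 1536-well plates the day after seeding. Nuclei were stained and counted after 5 days. Relative viability is the nuclei count in treated wells over that in vehicle wells, taken as the median of duplicate plates.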

[2] = compound: O[C@H]1CC[C@H](Nc2ncc3nc(Nc4c(F)cc(F)cc4F)n([C@H]4CCOC4)c3n2)CC1 [Tanzisertib] + Nc1ncn([C@H]2C[C@H](O)[C@@H](CO)O2)c(=O)n1 [Decitabine] (partner 2 µM)
Method in brief: as §1

[3] = compound: C1CNCCC1C2=CC(=NN2)C3=CC=NC=C3 + CC(=O)Nc1cccc(-n2c(=O)n(C3CC3)c(=O)c3c(Nc4ccc(I)cc4F)n(C)c(=O)c(C)c32)c1 [Trametinib] (partner 0.02 µM)
Method in brief: as §1

[4] = compound: C1CNCCC1C2=CC(=NN2)C3=CC=NC=C3 + Cc1nc(NC(=O)N2CCC[C@H]2C(N)=O)sc1-c1ccnc(C(C)(C)C(F)(F)F)c1 [Alpelisib] (partner 2 µM)
Method in brief: as §1

## UMC-11
[1]; first compound 0.08 µM
  relative viability: 0.653
[1]; first compound 0.8 µM
  relative viability: 0.9
[1]; first compound 2.53 µM
  relative viability: 0.874
[1]; first compound 8 µM
  relative viability: 0.811
[2]; first compound 0.08 µM
  relative viability: 0.662
[2]; first compound 0.253 µM
  relative viability: 0.688
[2]; first compound 0.8 µM
  relative viability: 0.654
[2]; first compound 2.53 µM
  relative viability: 0.852
[2]; first compound 8 µM
  relative viability: 0.85
[3]; first compound 0.08 µM
  relative viability: 0.554
[3]; first compound 0.8 µM
  relative viability: 0.776
[3]; first compound 2.53 µM
  relative viability: 0.796
[3]; first compound 8 µM
  relative viability: 0.768
[4]; first compound 0.08 µM
  relative viability: 0.815
[4]; first compound 0.8 µM
  relative viability: 1.22
[4]; first compound 2.53 µM
  relative viability: 0.911
[4]; first compound 8 µM
  relative viability: 1.03
